Patent US8338422B2, “Indolin-2-ones and aza-indolin-2-ones” (Janssen Pharmaceutica NV, priority 2007, dated 2012)

Tests used:
H1299 = assay: Cellular proliferation assay (Alamar blue), H1299; assay type: cell-based; settings: H1299 cells, 72 hours with compound, 10% FCS; for IC50: Homo sapiens, NCI-H1299, 72 h, read-out: pIC50 H1299 (converted)
Summary of the method: (§1)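 Proliferation was assessed over 72 h of compound treatment, following 24 h of seeding without compound, under 10% FCS, 37° C. and 5% CO2. Fluorescent resazurin product was measured and compared with control cells.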

MDA/MB231 = assay: Cellular proliferation assay (Alamar blue), MDA/MB231; assay type: cell-based; settings: MDA/MB231 cells, 72 hours with compound, 10% FCS; for IC50: Homo sapiens, MDA-MB-231, 72 h, read-out: pIC50 MDA/MB231 (converted)
Summary of the method: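 Viable cell number was assessed by resazurin-based Alamar blue fluorescence (544 nm/590 nm) after 72 h compound exposure in 10% FCS at 37° C, which followed a 24 h compound-free seeding period. Dye incubation was 24 h for MDA-MB-231 and 4 h for H460; results expressed versus control cells.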

PLK4 (h) = PLK4 (h) (Homo sapiens, UniProt O00444); assay: PLK-4 human kinase assay (SPA); assay type: biochemical; settings: for IC50: read-out: PLK4 pIC50 (converted)
Sequence of PLK4 (h) (O00444 whole entry): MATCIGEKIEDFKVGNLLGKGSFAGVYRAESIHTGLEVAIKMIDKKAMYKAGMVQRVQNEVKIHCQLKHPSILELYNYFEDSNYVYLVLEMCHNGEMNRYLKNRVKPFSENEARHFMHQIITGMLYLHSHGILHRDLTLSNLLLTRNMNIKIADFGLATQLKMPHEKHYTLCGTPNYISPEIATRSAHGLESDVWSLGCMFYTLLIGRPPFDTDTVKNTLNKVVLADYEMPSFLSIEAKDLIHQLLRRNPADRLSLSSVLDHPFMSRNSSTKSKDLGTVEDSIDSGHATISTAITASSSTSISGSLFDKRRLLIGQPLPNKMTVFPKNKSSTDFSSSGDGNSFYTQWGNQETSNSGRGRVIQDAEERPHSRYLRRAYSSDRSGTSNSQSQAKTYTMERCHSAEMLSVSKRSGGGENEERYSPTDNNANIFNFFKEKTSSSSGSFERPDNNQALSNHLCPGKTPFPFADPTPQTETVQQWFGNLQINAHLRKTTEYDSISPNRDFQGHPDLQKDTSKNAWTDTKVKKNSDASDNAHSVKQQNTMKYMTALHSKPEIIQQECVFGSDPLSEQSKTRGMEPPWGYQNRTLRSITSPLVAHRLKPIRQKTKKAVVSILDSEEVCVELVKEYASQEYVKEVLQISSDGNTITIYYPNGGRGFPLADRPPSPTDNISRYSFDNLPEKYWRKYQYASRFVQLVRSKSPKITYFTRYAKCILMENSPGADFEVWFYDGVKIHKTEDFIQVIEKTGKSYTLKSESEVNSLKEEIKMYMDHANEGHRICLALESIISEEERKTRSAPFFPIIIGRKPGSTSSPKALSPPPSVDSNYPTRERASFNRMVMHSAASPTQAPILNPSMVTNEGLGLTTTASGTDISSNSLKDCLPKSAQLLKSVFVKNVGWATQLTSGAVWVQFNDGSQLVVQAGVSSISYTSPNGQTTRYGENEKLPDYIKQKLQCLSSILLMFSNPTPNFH
Summary of the method: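 Radiometric readout: 33P-labelled peptide captured on streptavidin SPA beads after EDTA stop, imaged by Leadseeker. Reaction ran 60 min at room temperature in Hepes pH 8.0 buffer. It contained 1 μM ATP with 2 nM [γ-33P]ATP, 10 μM biotinylated peptide and PLK4 (h) at 19 μg/ml.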

A2780 = assay: Cellular proliferation assay (Alamar blue), A2780; assay type: cell-based; settings: A2780 cells, 72 hours with compound, 10% FCS; for IC50: Homo sapiens, A2780, 72 h, read-out: pIC50 A2780 (converted)
Summary of the method: as §1

U87MG = assay: Cellular proliferation assay (Alamar blue), U87MG; assay type: cell-based; settings: U87MG cells, 72 hours with compound, 10% FCS; for IC50: Homo sapiens, U-87 MG, 72 h, read-out: pIC50 U87MG (converted)
Summary of the method: as §1

AuroraB (h) = AuroraB (h) (Homo sapiens, UniProt Q96GD4); assay: Aurora-B human kinase assay (SPA); assay type: biochemical; settings: for IC50: read-out: AuroraB pIC50 (converted)
Sequence of AuroraB (h) (Q96GD4 whole entry): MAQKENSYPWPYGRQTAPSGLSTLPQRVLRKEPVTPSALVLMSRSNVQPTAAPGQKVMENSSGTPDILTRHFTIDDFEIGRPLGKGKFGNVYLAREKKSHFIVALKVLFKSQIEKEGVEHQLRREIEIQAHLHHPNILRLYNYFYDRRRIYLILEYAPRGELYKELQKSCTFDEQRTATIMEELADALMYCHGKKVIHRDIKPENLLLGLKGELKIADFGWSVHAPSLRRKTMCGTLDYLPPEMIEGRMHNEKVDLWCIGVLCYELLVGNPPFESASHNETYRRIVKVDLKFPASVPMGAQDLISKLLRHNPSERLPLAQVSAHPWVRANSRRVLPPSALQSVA
Summary of the method: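 Scintillation proximity assay: AuroraB (h) at 0.5 μg/ml with 3 μM biotinylated peptide, 0.5 μM ATP and 2.2 nM [γ-33P]ATP in 60 mM Hepes pH 7.5, 3 mM MgCl2, 3 mM MnCl2, 2 mM DTT. 60 min at room temperature, EDTA stop, streptavidin PVT beads read on Leadseeker.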

PC-3 = assay: Cellular proliferation assay (Alamar blue), PC-3; assay type: cell-based; settings: PC-3 cells, 72 hours with compound, 10% FCS; for IC50: Homo sapiens, PC-3, 72 h, read-out: pIC50 PC-3 (converted)
Summary of the method: as §1

CDK1/CyclinB (h) = CDK1/CyclinB (h) (Homo sapiens, UniProt P06493); assay: CDK1/CyclinB human kinase assay (FRET); assay type: biochemical; settings: for IC50: read-out: CDK1 pIC50 (converted)
Sequence of CDK1/CyclinB (h) (P06493 whole entry): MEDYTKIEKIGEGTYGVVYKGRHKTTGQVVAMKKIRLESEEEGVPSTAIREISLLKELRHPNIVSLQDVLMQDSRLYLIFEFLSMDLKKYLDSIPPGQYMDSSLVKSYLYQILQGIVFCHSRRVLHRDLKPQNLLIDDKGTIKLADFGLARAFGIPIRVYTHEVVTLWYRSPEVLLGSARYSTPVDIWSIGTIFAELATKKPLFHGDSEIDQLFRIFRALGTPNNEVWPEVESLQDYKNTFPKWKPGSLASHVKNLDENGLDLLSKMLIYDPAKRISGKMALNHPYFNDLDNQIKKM
Sequence of CDK1/CyclinB (h) (P14635 whole entry partner): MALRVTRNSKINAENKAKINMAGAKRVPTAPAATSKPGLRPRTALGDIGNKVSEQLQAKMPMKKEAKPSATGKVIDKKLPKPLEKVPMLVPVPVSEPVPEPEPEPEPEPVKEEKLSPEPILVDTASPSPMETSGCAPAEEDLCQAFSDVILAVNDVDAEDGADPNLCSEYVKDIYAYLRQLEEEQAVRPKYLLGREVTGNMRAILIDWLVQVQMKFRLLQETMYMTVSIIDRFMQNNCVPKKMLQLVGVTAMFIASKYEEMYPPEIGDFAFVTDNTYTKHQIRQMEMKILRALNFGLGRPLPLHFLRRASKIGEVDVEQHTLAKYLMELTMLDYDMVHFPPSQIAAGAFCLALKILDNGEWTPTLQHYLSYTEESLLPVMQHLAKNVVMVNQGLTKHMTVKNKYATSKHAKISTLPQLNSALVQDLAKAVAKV
Summary of the method: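 Z'-LYTE FRET format: 0.2 μg/ml enzyme with 2 μM Ser/Thr peptide 12 and 10 μM ATP in 50 mM Hepes pH 7.5, 10 mM MgCl2, 1 mM EGTA, 0.01% Brij-35, 60 min at room temperature. Protease development 60 min; coumarin/fluorescein emission ratio (460/538 nm, excitation 390 nm) reports phosphorylation.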

SKOV3 = assay: Cellular proliferation assay (Alamar blue), SKOV3; assay type: cell-based; settings: 72 hours with compound, 10% FCS; for pIC50 SKOV3: SKOV3 cells; for IC50: Homo sapiens, SK-OV-3, SKOV3 cells, read-out: pIC50 SKOV3 (converted)
Procedure: […] functional properties of these compounds was tested in cellular proliferation assays on a panel of different cell lines in the presence of 10% FCS serum (37° C. and 5% (v/v) CO2). In a first step these cells were seeded and incubated for 24 hours in the absence of compound. In the second step the cells were incubated for 72 hours with the compounds to be tested for 72 hours. The viable cell number was finally assessed in a standard Alamar blue cell viability assay.
The viable cell number was assessed by incubation for either 4 h (HCT-116, H1299, H460) 6 h (SKOV3, HT29, U87-MG, Colo205) or 24 h (A2780, PC3, MDA-MB-231, A549, MCF-7) with Alamar blue (Resazurin 9 μg/ml, K-Ferrocyanide 90 μM K-Ferricyanide 90 μM) and the converted fluorescent product was quantified on a fluorescent plate readed (544 nm/590 nm). Effect of the compounds is calculated as of on control cells.

HCT-116 = assay: Cellular proliferation assay (Alamar blue), HCT-116; assay type: cell-based; settings: HCT-116 cells, 72 hours with compound, 10% FCS; for IC50: Homo sapiens, HCT-116, 72 h, read-out: pIC50 HCT-116 (converted)
Summary of the method: as §1

GSK3β (h) = GSK3β (h) (Homo sapiens, UniProt P49841); assay: GSK-3β human kinase assay (SPA); assay type: biochemical; settings: for IC50: read-out: GSK3B pIC50 (converted)
Sequence of GSK3β (h) (P49841 whole entry): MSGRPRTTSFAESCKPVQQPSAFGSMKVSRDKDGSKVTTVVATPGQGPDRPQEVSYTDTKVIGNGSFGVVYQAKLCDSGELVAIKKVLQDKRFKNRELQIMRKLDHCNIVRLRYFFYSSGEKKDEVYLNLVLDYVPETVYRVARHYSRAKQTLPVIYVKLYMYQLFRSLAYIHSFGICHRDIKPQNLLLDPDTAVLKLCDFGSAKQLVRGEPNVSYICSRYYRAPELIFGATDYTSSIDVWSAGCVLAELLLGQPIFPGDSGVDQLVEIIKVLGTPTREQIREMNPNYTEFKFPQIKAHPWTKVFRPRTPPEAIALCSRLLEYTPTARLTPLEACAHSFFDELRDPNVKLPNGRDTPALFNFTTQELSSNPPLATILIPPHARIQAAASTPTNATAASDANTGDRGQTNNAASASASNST
Summary of the method: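 Radiometric SPA read-out: after EDTA stop, biotinylated 33P-labelled peptide bound streptavidin PVT beads and was imaged on Leadseeker. Reaction: 60 min, room temperature, GSK3β (h) at 1 μg/ml, 1 μM substrate peptide, 1 μM ATP with 2 nM [γ-33P]ATP, Tris pH 7.4/MgCl2/DTT buffer.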

Row | Compound | IC50 (H1299) [µM] | IC50 (MDA/MB231) [µM] | IC50 (PLK4 (h)) [µM] | IC50 (A2780) [µM] | IC50 (U87MG) [µM] | IC50 (AuroraB (h)) [µM] | IC50 (PC-3) [µM] | IC50 (CDK1/CyclinB (h)) [µM] | IC50 (SKOV3) [µM] | IC50 (GSK3β (h)) [µM] | IC50 (HCT-116) [µM] | also measured
1 | CN1CCCNc2ncnc3c2C(=CNc2ccc(N4CCOCC4)c(c2)OCCCCC1=O)C(=O)N3 (mixture of isomers) [Compound 121] |  |  |  |  |  |  |  |  |  |  |  | pIC50 H1299 (H1299): 6.32; pIC50 MDA/MB231 (MDA/MB231): 5.20; PLK4 pIC50 (PLK4 (h)): 7.22; pIC50 A2780 (A2780): 6.48; pIC50 U87MG (U87MG): 6.66; AuroraB pIC50 (AuroraB (h)): 6.15; pIC50 PC-3 (PC-3): 5.19; CDK1 pIC50 (CDK1/CyclinB (h)): 6.24; pIC50 SKOV3 (SKOV3): 5.78; pIC50 HCT-116 (HCT-116): 5.99; GSK3B pIC50 (GSK3β (h)): 7.45
2 | CN1CCCNc2ncnc3c2C(=CNc2ccc(N4CCOCC4)c(c2)OCCCCCC1=O)C(=O)N3 (mixture of isomers) [Compound 120] |  |  |  |  |  |  |  |  |  |  |  | pIC50 H1299 (H1299): 5.68; pIC50 MDA/MB231 (MDA/MB231): 5.03; PLK4 pIC50 (PLK4 (h)): 6.67; pIC50 A2780 (A2780): 5.95; pIC50 U87MG (U87MG): 5.99; AuroraB pIC50 (AuroraB (h)): 5.58; pIC50 PC-3 (PC-3): <5; CDK1 pIC50 (CDK1/CyclinB (h)): 5.86; pIC50 SKOV3 (SKOV3): 5.02; pIC50 HCT-116 (HCT-116): 5.38; GSK3B pIC50 (GSK3β (h)): 6.73
3 | COc1cc2cc(c1OC)CN(C)CCCCC(=O)N(C)CCNc1ncnc3c1/C(=C/N2)C(=O)N3 [Compound 119] | > 10 | > 10 | 7.41 | 2.57 | > 10 | > 10 | > 10 | 6.31 | > 10 | > 10 |  | 
4 | CN1CCN(c2ccc3cc2CN(C)CCCC(=O)N(C)CCNc2ncnc4c2/C(=C/N3)C(=O)N4)CC1 [Compound 116] | 9.77 | 5.25 | 5.89 | 3.72 | 3.24 | > 10 | > 10 | > 10 | > 10 | 3.09 | 6.46 | 
5 | CN1CCN(c2ccc3cc2CN(C)CCCCC(=O)N(C)CCCNc2ncnc4c2/C(=C/N3)C(=O)N4)CC1 [Compound 122] | 1.2 | 1.95 | 0.851 | 0.288 | 0.708 | > 10 | 7.94 | 4.68 | 8.32 | 0.575 |  | 
6 | CN1CCN(c2ccc3cc2CN(C)CCCCCC(=O)N(C)CCCNc2ncnc4c2C(=CN3)C(=O)N4)CC1 (mixture of isomers) [Compound 117] |  |  |  |  |  |  |  |  |  |  |  | pIC50 H1299 (H1299): 5.15; pIC50 MDA/MB231 (MDA/MB231): 5.06; PLK4 pIC50 (PLK4 (h)): 6.5; pIC50 A2780 (A2780): 5.63; pIC50 U87MG (U87MG): 5.55; AuroraB pIC50 (AuroraB (h)): <5; pIC50 PC-3 (PC-3): <5; CDK1 pIC50 (CDK1/CyclinB (h)): <5; pIC50 SKOV3 (SKOV3): <5; GSK3B pIC50 (GSK3β (h)): 5.58
7 | CN1CCNc2ncnc3c2C(=CNc2cccc(c2)OCCCC1=O)C(=O)N3 (mixture of isomers) [Compound 58] |  |  |  |  |  |  |  |  |  |  |  | pIC50 H1299 (H1299): 5.89; pIC50 MDA/MB231 (MDA/MB231): <5; PLK4 pIC50 (PLK4 (h)): 6.75; pIC50 A2780 (A2780): 6.2; pIC50 U87MG (U87MG): 5.13; AuroraB pIC50 (AuroraB (h)): 6.33; pIC50 PC-3 (PC-3): <5; CDK1 pIC50 (CDK1/CyclinB (h)): 6.16; pIC50 HCT-116 (HCT-116): 6.17; GSK3B pIC50 (GSK3β (h)): 6.88
8 | COc1cc2cc(c1OC)CN(C)CCCC(=O)N(C)CCNc1ncnc3c1/C(=C/N2)C(=O)N3 [Compound 118] | > 10 | > 10 | > 10 | > 10 | > 10 | > 10 | > 10 | > 10 | > 10 | > 10 | > 10 | 
9 | CN1CCN(c2ccc3cc2CN(C)CCCCCC(=O)N(C)CCNc2ncnc4c2/C(=C/N3)C(=O)N4)CC1 [Compound 126] | > 10 | > 10 | 0.676 | > 10 | 6.31 | > 10 | > 10 | > 10 |  | 3.89 | > 10 | 
10 | COc1ccc2cc1CN(C)CCCCCCC(=O)NCCN(C)c1ncnc3c1/C(=C/N2)C(=O)N3 [Compound 50] | > 10 | > 10 | > 10 | > 10 | > 10 | > 10 | > 10 | > 10 |  | > 10 | > 10 | 
11 | COc1ccc2cc1OCCCC(=O)NCCN(C)c1ncnc3c1/C(=C/N2)C(=O)N3 [Compound 38] | > 10 | > 10 | 2.63 | > 10 | > 10 | > 10 | > 10 | > 10 |  | 3.63 | > 10 | 
12 | COc1cc2cc(c1OC)CN(C)CC(=O)N(C)CCCCNc1ncnc3c1/C(=C/N2)C(=O)N3 [Compound 152] | > 10 | > 10 | 5.01 | > 10 | > 10 | > 10 | > 10 | > 10 |  | > 10 | > 10 | 
13 | CN1CCNC(=O)CCCOc2cc(ccc2Cl)N/C=C2\C(=O)Nc3ncnc1c32 [Compound 55] | > 10 | > 10 | > 10 | > 10 | > 10 | > 10 | > 10 | > 10 |  | > 10 | > 10 | 
14 | COc1cc2cc(c1OC)CN(C)CC(=O)N(C)CCNc1ncnc3c1/C(=C/N2)C(=O)N3 [Compound 123] | > 10 | > 10 | > 10 | > 10 | > 10 | > 10 | > 10 | > 10 | > 10 | > 10 | > 10 | 
